Legend:
bEnd.3 cells = experiment: Detection of PS on cultured endothelial cells by 125I-labeled annexin V; format: cell-based, mouse; details: for 125I-Annexin V (% of Max binding), bEnd.3 cells: 24 h, concentration as listed per treatment
Procedure: (§1) All reagents were diluted in medium containing 10% serum and incubated with the cells at 37° C. for 24 h.
(§2) To study the effect of hypoxia, cells were seeded on 24 well plates and were incubated in a humidified normoxic atmosphere (21% O2. 5% CO2) for 48 h before being transferred to a humidified hypoxic atmosphere (1% O2, 5% CO2, 94% N2) in a sealed chamber (Billups Rothenberg Inc., Del Mar, Calif.). Cells were incubated in a hypoxic chamber for 24 h at 37° C. and were then returned to a normoxic environment for 4 h at 37° C. The cells were compared to a parallel culture from an identical passage, seeded on the same day and maintained entirely under normoxic conditions. In some studies, IL-1α (10 ng/ml) and TNFα (20 ng/ml) were added to the medium before transfer to the hypoxic chamber.
(§3) After treatment with the reagents described above, treated and control cells were incubated with 7.1 pmoles of ^125I-labeled annexin V (200 μl/well) in the binding buffer. After 2 h incubation at room temperature, cells were washed extensively and dissolved in 0.5 M of NaOH. The entire volume of 0.5 ml was transferred to plastic tubes and counted in a gamma counter. Non-specific binding was determined in the presence of 5 mM EDTA and was subtracted from experimental values. The results were expressed as net pmoles of cell-bound annexin V, normalized per 1×10^6 cells.
(§4) Maximal binding of annexin V was determined on cells simultaneously treated with actinomycin D and TNFα (50 ng/ml of each component). As has been previously reported, these agents cause apoptosis and PS exposure in 90-100% of endothelial cells (Lucas et al., 1998). Basal binding of ^125I-annexin V to untreated cells was determined in the presence of medium with 10% serum. The amount of ^125I-annexin V that bound to the untreated cultures was subtracted from that in the treated cultures. Exposure of PS was calculated according to the following formula: cell-bound annexin V (pmoles) under experimental conditions divided by maximal annexin V binding (pmoles), multiplied by 100. Each study was performed in duplicate and was performed at least three times. Mean values were calculated. The SE of the mean values from three separate experiments was less than 5%.

ABAE cells = experiment: as above; format: cell-based, bovine; details: for 125I-Annexin V (% of Max binding), ABAE cells: 24 h, concentration as listed per treatment; for anionic phospholipid-exposure (% of the maximum): ABAE cells, hypoxia/reoxygenation in the presence of sub-toxic cytokine
Procedure: as §1, §2, §3, §4

Mouse melanoma B16 = experiment: PS exposure on tumor cells by FACS (3G4 binding), B16; format: cell-based; details: docetaxel, compared with untreated cells
HUVEC and HMVEC = experiment: Induction of PS exposure on endothelial cells by docetaxel (FACS, 3G4 binding); format: cell-based, human; details: 10 nM, 24 hrs
Procedure: (§5) FIG. 24A and FIG. 24B. Induction of PS exposure on endothelial cells by docetaxel. Human umbilical vein endothelial cells (HUVEC) and human microvessel endothelial cells (HMVEC) were treated with 10 nM of docetaxel for 24 hrs. […] The cells were then washed twice, FITC labeled goat anti-mouse IgG was added and the cells incubated for a further 30 mins. on ice. The cells were then washed and analyzed by FACS using a FACSCalibur cytometer (Becton-Dickinson, San Jose, Calif.) with CellQuest acquisition software.
(§6) The induction of PS exposure on endothelial cells by subclinical concentrations of docetaxel was examined in vitro by FACS analysis. Human umbilical vein endothelial cells (HUVEC) and human microvessel endothelial cells (HMVEC) were treated with 10 nM of docetaxel for 24 hrs and examined by FACS. […] Docetaxel incubations for 48 and 72 hrs were also conducted.

[1] = system: human breast cancer MDA-MB-435 cells; experiment: PS exposure on tumor cells by FACS (3G4 binding), MDA-MB-435; format: cell-based; details: 10 nM docetaxel, 24 hrs, compared with untreated cells
Procedure: (§7) The in vitro induction of PS exposure by subclinical concentrations of docetaxel was also examined by FACS analysis using a panel of tumor cell lines. Mouse lewis lung carcinoma 3 LL, mouse colon carcinoma Colo26 and human breast cancer MDA-MB-435 cells were treated with 10 nM of docetaxel for 24 hrs and examined by FACS. […] Docetaxel incubations for 48 and 72 hrs were also conducted.

[2] = breast cancer patients; cited from earlier work
tumor cell lines = experiment: Induction of PS exposure on tumor cell lines by docetaxel (FACS); format: cell-based; details: 10 nM, 24 hrs
Procedure: as §5, with “25A, FIG. 25B” for “24A”, “25C.” for “24B.”, “tumor cell lines” for “endothelial cells”, “Mouse lewis lung carcinoma 3LL, mouse colon carcinoma Colo26” for “Human umbilical vein endothelial cells (HUVEC)”, “breast cancer MDA-MB-435” for “microvessel endothelial”, “cells” for “cells (HMVEC)”
FIG. 26. Induction of PS exposure on human breast cancer MDA-MB-231 cells by docetaxel. Human breast cancer MDA-MB-231 cells were treated with 10 nM of docetaxel for 24 hrs. […] The cells were then washed twice, FITC labeled anti-IgG was added and the cells analyzed by FACS, as above. There is a significant increase in ch3G4 binding as compared to control, human IgG.
as §7

[3] = system: human umbilical vein endothelial cells (HUVEC); experiment: PS exposure on endothelial cells by FACS (3G4 binding), HUVEC; format: cell-based; details: 10 nM docetaxel, 24 hrs, compared to untreated cells
Procedure: as §6

[4] = system: Mouse lewis lung carcinoma 3 LL; experiment: PS exposure on tumor cells by FACS (3G4 binding), 3LL; format: cell-based; details: 3 LL cells, 10 nM docetaxel, 24 hrs, compared with untreated cells
Procedure: as §7

[5] = system: mouse colon carcinoma Colo26; experiment: PS exposure on tumor cells by FACS (3G4 binding), Colo26; format: cell-based; details: 10 nM docetaxel, 24 hrs, compared with untreated cells
Procedure: as §7

[6] = system: mouse firbrosarcoma Meth A; experiment: PS exposure on tumor cells by FACS (3G4 binding), Meth A; format: cell-based; details: docetaxel, compared with untreated cells
[7] = system: human microvessel endothelial cells (HMVEC); experiment: PS exposure on endothelial cells by FACS (3G4 binding), HMVEC; format: cell-based; details: 10 nM docetaxel, 24 hrs, compared to untreated cells
Procedure: as §6

[8] = patients having progressive disease before treatment; cited from earlier work
bEnd.3 endothelial cells = experiment: Induction of PS by H2O2: anti-PS IgM staining and Trypan Blue exclusion

Molecule	125I-Annexin V (% of Max binding), bEnd.3 cells (bEnd.3 cells) [%]	125I-Annexin V (% of Max binding), ABAE cells (ABAE cells) [%]	other results
FGF-2: human fibroblast growth factor-2	0	0	
Interferon	2.8	8.6	
Hypoxia + IL-1α: IL-1α (10 ng/ml) under hypoxia/reoxygenation	31.0	26.0	
Scatter factor: recombinant hepatocyte growth factor (HGF or scatter factor)	0	0	
TNFα	13.7	7.4	anionic phospholipid-exposure (% of the maximum) (ABAE cells): 33%
IL-10: interleukin-10	0	0	
IL-6: interleukin-6	0	0	
CC(=O)O[C@@]12CO[C@@H]1C[C@H](O)[C@@]1(C)C(=O)[C@H](O)C3=C(C)[C@@H](OC(=O)[C@H](O)[C@@H](NC(=O)OC(C)(C)C)c4ccccc4)C[C@@](O)([C@@H](OC(=O)c4ccccc4)[C@H]21)C3(C)C [docetaxel]			3G4 binding by FACS (PS exposure) (Mouse melanoma B16): significant increase in 3G4 binding; 3G4 binding vs. untreated cells (HUVEC and HMVEC; HMVEC): significant increase in 3G4 binding; 3G4 binding vs. untreated cells (HUVEC and HMVEC; HUVEC): significant increase in 3G4 binding; 3G4 binding by FACS (PS exposure) [1]: significant increase in 3G4 binding; serum cytokine levels and NK/LAK cell activity [2]: increase in serum IFN-γ, IL-2, IL-6 and GM-CSF cytokine levels and enhancement of NK and LAK cell activity; 3G4 binding vs. untreated cells (tumor cell lines; 3LL, Colo26, MDA-MB-435 cells): significant increase in 3G4 binding; antibody (ch3G4) binding to treated cells (tumor cell lines; MDA-MB-231, vs. human IgG): significant increase in antibody binding; 3G4 binding by FACS (PS exposure) [3]: significant increase in 3G4 binding; 3G4 binding by FACS (PS exposure) [4]: significant increase in 3G4 binding; 3G4 binding by FACS (PS exposure) [5]: significant increase in 3G4 binding; 3G4 binding by FACS (PS exposure) [6]: significant increase in 3G4 binding; 3G4 binding by FACS (PS exposure) [7]: significant increase in 3G4 binding
TGF β1: growth factor	0	0	
VEGF	0	0	
IL-8: interleukin-8	0	0	
NC(=O)c1nnn(Cc2cc(Cl)c(C(=O)c3ccc(Cl)cc3)c(Cl)c2)c1N [CAI, carboxyamidotriazole]			cancer patients with disease stabilization [8]: 49%
Thrombin	17.4	8.8	
OO [Hydrogen peroxide, hydrogen peroxide]	98.4	95.5	cells with PS detected at the cell surface (bEnd.3 endothelial cells; concentrations as low as 20 μM): about 50%; cell viability (bEnd.3 endothelial cells; high concentrations, 1 hour): 50-60%; cells with PS translocation (bEnd.3 endothelial cells; high concentrations, 1 hour): ~90%; cell viability (bEnd.3 endothelial cells; low levels of H2O2, identical to untreated cells): 95%; cells with translocation of anionic phospholipids to the external surface (125I-labeled annexin V) (bEnd.3 cells; 200 μM for 2 h): 70-90%; externalization of PS by 125I-annexin V binding (ABAE cells; 100 to 200 μM, both cell types): 95%; cells that bound biotinylated annexin V (immunohistochemically) (ABAE cells; ABAE and bEnd.3 cells, 100 to 200 μM): More than 70%
IL-1β: recombinant murine interleukin-1 beta (protein, UniProt P10749 118-269, looked up) Interleukin-1 beta: VPIRQLHYRLRDEQQKSLVLSDPYELKALHLNGQNINQQVIFSMSFVQGEPSNDKIPVALGLKGKNLYLSCVMKDGTPTLQLESVDPKQYPKKKMEKRFVFNKIEVKSKVEFESAEFPNWYISTSQAEHKPVFLGNNSGQDIIDFTMESVSS	5.5	5.8	
IL-1α: recombinant murine interleukin-1 alpha (protein, UniProt P01582 115-270, looked up) Interleukin-1 alpha: SAPYTYQSDLRYKLMKLVRQKFVMNDSLNQTIYQDVDKHYLSTTWLNDLQQEVKFDMYAYSSGGDDSKYPVTLKISDSQLFVSAQGEDQPVLLKELPETPKLITGSETDLIFFWKSINSKNYFTSAAYPELFIATKEQSRVHLARGLPSMTDFQIS	7.5	6.4	anionic phospholipid-exposure (% of the maximum) (ABAE cells): 26%
